US20040121316A1 (priority 2002, published 2004)
Like-named read-outs stand apart in the source and are kept apart here. Peptide text beside a SMILES is read from it. * marks the point of attachment. MeOSuc = COC(=O)CCC(=O)*; CH2Cl = ClC*

Experiments:
WT HIV-1 = assay: microbe, parasite or virus in culture; assay type: cell-based
[1] = tested on: recombinant HIV-1 10I 48V 54V 82A; assay: microbe, parasite or virus in culture; assay type: cell-based; settings: Human immunodeficiency virus 1, MT4, read-out: Cell-based assay (MT-4) EC50/nM 48V 54V 82A
[2] = tested on: recombinant HIV-1 30N 50S 82I 88D; assay: microbe, parasite or virus in culture; assay type: cell-based; settings: Human immunodeficiency virus 1, MT4, read-out: Cell-based assay (MT-4) EC50/nM 30N 82I 88D
[3] = tested on: recombinant HIV-1 10I 84V 71V 73S 90M; assay: microbe, parasite or virus in culture; assay type: cell-based; settings: Human immunodeficiency virus 1, MT4, read-out: Cell-based assay (MT-4) EC50/nM 84V 90M
HIV-1 protease 84V90M = biological target: T1, HIV-1 protease 84V90M (Human immunodeficiency virus type 1 group M subtype B, UniProt P04585, I572V/L578M); assay: Enzymatic assay, IC50 against 84V90M mutant protease; assay type: biochemical
T1 construct: synthetic hexapeptide substrate cleavage by HIV-1 protease

[4] = tested on: wild-type HIV-1 strain IIIB; assay: microbe, parasite or virus in culture; assay type: cell-based; settings: Human immunodeficiency virus 1, IIIB
[5] = tested on: recombinant HIV-1 strains with resistance mutations in the protease gene; assay: Cross-Resistance Profile Assay, whole panel; assay type: cell-based
in vivo = settings: beagle, dog, po
in vitro = settings: human
MT-2 cells [6] = tested on: MT-2 cells
[7] = tested on: MT-2 cells, stimulated and quiescent PBMC
MT-2 cells [8] = tested on: MT-2 cells; remark: listed apart in the source
[9] = tested on: PBMC in human whole blood
[10] = not given; remark: listed apart in the source
[11] = not given; remark: listed apart in the source
[12] = biological target: porcine liver carboxylesterase (PLCE) (Sus scrofa, UniProt Q29550); assay type: biochemical; settings: read-out: IC50 (μM) PLCE
Sequence of porcine liver carboxylesterase (PLCE) (Q29550 whole entry): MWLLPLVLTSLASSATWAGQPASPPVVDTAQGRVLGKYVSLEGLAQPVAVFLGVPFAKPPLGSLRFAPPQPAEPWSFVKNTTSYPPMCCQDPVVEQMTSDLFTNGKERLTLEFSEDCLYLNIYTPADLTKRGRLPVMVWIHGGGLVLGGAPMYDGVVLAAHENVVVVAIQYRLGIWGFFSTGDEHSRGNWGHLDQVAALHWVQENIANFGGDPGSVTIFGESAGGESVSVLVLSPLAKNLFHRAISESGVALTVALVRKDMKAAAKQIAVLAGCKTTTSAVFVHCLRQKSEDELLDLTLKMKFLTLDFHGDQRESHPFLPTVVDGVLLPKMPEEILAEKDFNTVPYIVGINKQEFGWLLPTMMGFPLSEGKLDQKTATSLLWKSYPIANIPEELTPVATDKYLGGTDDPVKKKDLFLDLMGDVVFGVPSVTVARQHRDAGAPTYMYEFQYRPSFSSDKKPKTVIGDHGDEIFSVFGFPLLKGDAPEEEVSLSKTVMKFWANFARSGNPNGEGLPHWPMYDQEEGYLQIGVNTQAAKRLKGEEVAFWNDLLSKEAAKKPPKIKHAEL

[13] = tested on: recombinant HIV-1 46I 47V 50V; assay: microbe, parasite or virus in culture; assay type: cell-based; settings: Human immunodeficiency virus 1, MT4, read-out: Cell-based assay (MT-4) EC50/nM 47I 50V
[14] = tested on: recombinant HIV-1 10I 48V 71V 82A 90M; assay: microbe, parasite or virus in culture; assay type: cell-based; settings: Human immunodeficiency virus 1, MT4, read-out: Cell-based assay (MT-4) EC50/nM 48V 82A 90M
[15] = tested on: recombinant HIV-1 48V 54V 71V 82S; assay: microbe, parasite or virus in culture; assay type: cell-based; settings: Human immunodeficiency virus 1, MT4, read-out: Cell-based assay (MT-4) EC50/nM 48V 54V 82S
[16] = Human immunodeficiency virus 1, MT4, read-out: Cell-based assay (MT-4) EC50/nM WT
[17] = XTT-based cytopathic assay, read-out: EC50 WT HIV-1
[18] = resistance = 5-fold and higher change in EC50 of the mutant relative to wild-type, 11 mutant viruses

O=C1N(Cc2ccccc2)C(Cc2ccccc2)C(O)C(O)C(Cc2ccc(OCP(=O)(OCc3ccccc3)OCc3ccccc3)cc2)N1Cc1ccccc1 (stereo not shown)
EC50 (WT HIV-1; [16]): 1770 nM | EC50 [1]: > 6000 nM | EC50 [2]: 3140 nM | EC50 [3]: > 6000 nM | IC50 (HIV-1 protease 84V90M): 0.158 µM

O=C1N(Cc2ccccc2)C(Cc2ccccc2)C(O)C(O)C(Cc2ccc(OCP(=O)(O)O)cc2)N1Cc1ccccc1 (stereo not shown)
EC50 (WT HIV-1; [16]): > 6000 nM | EC50 [3]: > 6000 nM | IC50 (HIV-1 protease 84V90M): 0.21 µM

CC(C)CN(C[C@@H](O)[C@H](Cc1ccccc1)NC(=O)O[C@H]1CCOC1)S(=O)(=O)c1ccc(N)cc1 [Amprenavir, reference compound]
EC50 [4]: < 0.05 µM | EC50 ([4]; MT2, 120 h, read-out: Anti-HIV-1 Cell Culture Activity EC50): 0.016 ± 0.0022 µM | Total No. of Resistant Viruses ([5]; {}): 4 | AUC (in vivo): 102 µM·h | half-life (in vivo): 1.7 h | CC50 (in vitro): > 50 µM

COc1ccc(S(=O)(=O)N(CC(C)C)C[C@@H](O)[C@H](Cc2ccc(P(=O)(O)O)cc2)NC(=O)O[C@H]2CO[C@H]3OCC[C@H]32)cc1 [Compound 27]
CC50 (MT-2 cells [6]): > 100 µM

CCOP(=O)(OCC)c1ccc(CC(NC(=O)OC2COC3OCCC23)C(O)CN(CC(C)C)S(=O)(=O)c2ccc(OC)cc2)cc1 (stereo not shown) [Compound 28]
CC50 (MT-2 cells [6]): 70 µM

CCCCOC(=O)C(C)NP(=O)(COc1ccc(CC(NC(=O)OC2COC3OCCC23)C(O)CN(CC(C)C)S(=O)(=O)c2ccc(OC)cc2)cc1)NC(C)C(=O)OCCCC (stereo not shown) [GS-16503]
EC50 (WT HIV-1; [17]): 16 nM | Total No. of Resistant Viruses [5, 18]: 0 | intracellular metabolites formed [7]: Metabolite X and GS-8373 | Metabolism (conversion to acid metabolites), dependence on concentration (MT-2 cells [8]): concentration-dependent | increase in conversion to acid metabolites at 1 μM vs. 10 μM (MT-2 cells [8]): 3 fold | Intracellular Acid Metabolite Concentration [9]: 279 ± 47 µM | Intracellular Concentration, Acid Metabolite [9]: 279 ± 47 µM | Intracellular Concentration, Prodrug [9]: 61 ± 40 µM | Intracellular Prodrug [9]: 61 ± 40 µM | Intracellular Prodrug and Metabolites Concentration, Total [9]: 340 ± 35 µM | Intracellular Prodrug and Metabolites Total [9]: 340 ± 35 µM | Major Intracellular Metabolites [9]: X, GS-8373 | Cell-Associated PI, Prodrug (quiescent PBMC): 0 pmol/mln cells | composition of metabolites in PBMC (quiescent PBMC): equimolar mixture of metabolite X and GS-8373 | PBMC Extract T1/2: 0.033 h | PBMC Extract T1/2, min: 0.033 h | Dog Plasma T1/2 [10]: 6.13 h | Dog Plasma T1/2, min [10]: 6.13 h | Human Serum T1/2 [11]: >>400 min | Human Serum T1/2, min [11]: >>400 min

CCOC(=O)C(C)NP(=O)(COc1ccc(CC(NC(=O)OC2COC3OCCC23)C(O)CN(CC(C)C)S(=O)(=O)c2ccc(OC)cc2)cc1)Oc1ccccc1 (stereo not shown) [GS-16571]
EC50 (WT HIV-1; [17]): 22 nM | Total No. of Resistant Viruses [5, 18]: 0 | intracellular metabolites formed [7]: Metabolite X and GS-8373 | Intracellular Acid Metabolite Concentration [9]: 319 ± 112 µM | Intracellular Concentration, Acid Metabolite [9]: 319 ± 112 µM | Intracellular Concentration, Prodrug [9]: 137 ± 62 µM | Intracellular Prodrug [9]: 137 ± 62 µM | Intracellular Prodrug and Metabolites Concentration, Total [9]: 432 ± 208 µM | Intracellular Prodrug and Metabolites Total [9]: 432 ± 208 µM | Major Intracellular Metabolites [9]: X, GS-8373 | PBMC Extract T1/2: 0.817 h | PBMC Extract T1/2, min: 0.817 h | Dog Plasma T1/2 [10]: 2.1 h | Dog Plasma T1/2, min [10]: 2.1 h | Human Serum T1/2 [11]: 110 min | Human Serum T1/2, min [11]: 110 min

CCOC(=O)C(C)OP(=O)(COc1ccc(C[C@H](NC(=O)O[C@H]2CO[C@H]3OCC[C@H]32)[C@H](O)CN(CC(C)C)S(=O)(=O)c2ccc(OC)cc2)cc1)Oc1ccccc1 (stereo partly shown) [GS-17394]
intracellular metabolites formed [7]: Metabolite LX | Metabolism (conversion to acid metabolites), dependence on concentration (MT-2 cells [8]): independent | Intracellular Acid Metabolite Concentration [9]: 629 ± 303 µM | Intracellular Concentration, Acid Metabolite [9]: 629 ± 303 µM | Intracellular Concentration, Prodrug [9]: 69 ± 85 µM | Intracellular Prodrug [9]: 69 ± 85 µM | Intracellular Prodrug and Metabolites Concentration, Total [9]: 698 ± 301 µM | Intracellular Prodrug and Metabolites Total [9]: 698 ± 301 µM | Cell-Associated PI, Prodrug (quiescent PBMC): 0 pmol/mln cells | composition of metabolites in PBMC (quiescent PBMC): only metabolite LX | PBMC Extract T1/2: 0.25 h | PBMC Extract T1/2, min: 0.25 h | Dog Plasma T1/2 [10]: 2.4 h | Dog Plasma T1/2, min [10]: 2.4 h | Human Serum T1/2 [11]: 49 min | Human Serum T1/2, min [11]: 49 min

COC(=O)CCC(=O)N[C@@H](C)C(=O)N[C@@H](C)C(=O)N1CCC[C@H]1C(=O)N[C@@H](C)C(=O)CCl [MeOSuC-Ala-Ala-Pro-Ala-CMK] (MeOSuc-AAPA-CH2Cl)
IC50 [12]: > 1000 µM

COC(=O)CCC(=O)N[C@@H](C)C(=O)N[C@@H](C)C(=O)N1CCC[C@H]1C(=O)N[C@H](C(=O)CCl)C(C)C [MeOSuc-Ala-Ala-Pro-Val-CMK] (MeOSuc-AAPV-CH2Cl)
IC50 [12]: > 1000 µM

Cc1c(O)cccc1C(=O)N[C@@H](CSc1ccccc1)[C@H](O)CN1C[C@H]2CCCC[C@H]2C[C@H]1C(=O)NC(C)(C)C [Nelfinavir]
EC50 [4]: < 0.05 µM | Total No. of Resistant Viruses ([5]; {}): 9 | distribution between cytosol and membrane fractions (quiescent PBMC): present only in the membrane fractions | AUC (in vivo): 33 µM·h | half-life (in vivo): 3 h

CCOP(=O)(COc1ccc(CC2C(O)C(O)C(Cc3ccc(OC)cc3)N(Cc3cccc(N)c3)C(=O)N2Cc2cccc(N)c2)cc1)OCC (stereo not shown) [OCH3/Ph-mNH2/OCH2PO3Et2]
EC50 (WT HIV-1; [16]): 63 nM | EC50 [1]: 202 nM | EC50 [13]: 36 nM | EC50 [2]: 18 nM | EC50 [14]: 102 nM | EC50 [15]: 117 nM | EC50 [3]: 535 nM | IC50 (HIV-1 protease 84V90M): 0.056 µM

CCOP(=O)(CCNC(=O)Oc1ccc(CC2C(O)C(O)C(Cc3ccc(OC)cc3)N(Cc3ccc(O)cc3)C(=O)N2Cc2ccc(O)cc2)cc1)OCC (stereo not shown) [OCH3/Ph-pOH/OCONH(CH2)2PO3Et2]
EC50 (WT HIV-1; [16]): 33 nM | EC50 [1]: 74 nM | EC50 [13]: 223 nM | EC50 [2]: 31 nM | EC50 [14]: 55 nM | EC50 [15]: 51 nM | EC50 [3]: 495 nM | IC50 (HIV-1 protease 84V90M): 0.049 µM
